# Laboratory results: patent US9388126B2, “Sigma receptor ligands and methods of modulating cellular protein homeostasis using same” (Drexel University, priority 2012, dated 2016)
# Legend:
# Format in all cases: cell-based, human
# [1] = system: MDA-MB-468 cells; test: Cell size by flow cytometry (mean FSC-H, G1 phase); settings: 10 μM
# Procedure: FIG. 11 is a graph illustrating decrease in MDAMB468 cell size associated with the Sigma1 antagonist treatment. MDA-MB-468 cells were treated for 24 hours with DMSO (control), 10 μM IPAG (antagonist), or 10 μM PRE084 (agonist). Cell size was quantitated by flow cytometry, using a Becton Dickinson FACS Calibur flow cytometer with Cell Quest software. The mean forward scatter height (FSC-H) of the G1-phase population was determined as a measure of relative cell size. Single cells were gated away from aggregated cells using an FL2-width versus FL-2 area dot plot. Mean FSC-H±S.E. was calculated from at least 4 independent determinations. For each FSC-H determination, FACS analysis was performed on 10,000 single cells. The mean FSC-H of DMSO (control) and PRE084 treated MDA-MB-468 measured 370±6 and 372±7, respectively, whereas the mean FSC-H of IPAG treated MDA-MB-468 cells was 323±4. ** P<0.01 for IPAG compared to DMSO and IPAG compared to PRE084.
# FIG. 31A is a differential interference contrast (DIC) image of MDA-MB-468 breast adenocarcinoma cells treated for ˜20 hours with DMSO (drug vehicle control), 10 μM IPAG (antagonist) or 10 μM PRE084 (agonist). A twenty-micron bar is shown in each image. Data are presented as mean±SEM. FIG. 31B is a graph illustrating the finding that IPAG diminished the mean cell size (FSC-H) of MDA-MB-468 breast tumor cells in a time-responsive manner. The mean FSC-H of 370±5 at to decreased to 323±4 after 24 hours of IPAG treatment and to 267±2 after 48 hours of treatment. Two-tailed t-tests were performed to determine statistical significance. For IPAG treatment compared to control (DMSO) and Sigma agonists (SKF and PRE084), P=0.0002 at d1 and P=0.00013 at d2. Data were generated from three to five independent determinations for each time-point. […] T-47D were treated for 24 h with 1 and 10 μM IPAG, and mean FSC-H was measured. […] For FIGS. 31B-31E, the mean FSC-H was determined for each cell cycle population (i.e., G1, S, G2/M), and data is shown for G1 phase cells. […]
# [2] = system: MDA-MB-468 breast adenocarcinoma cells; test: LC3 lipidation (LC3II) immunoblot; settings: 24 hours
# Procedure: Cells were lysed and proteins extracted in a modified RIPA buffer (25 mM Tris-HCl pH 7.6, 150 mM NaCl, 1% NP-40, 1% sodium deoxycholate and 0.1% SDS) supplemented with 10% glycerol (volume/volume), complete protease inhibitor cocktail (Roche), and Halt phosphatase inhibitor cocktail (Pierce). Approximately 10-20 μg of detergent soluble protein were resolved on NOVEX 10-20% polyacrylamide Tris-glycine gels (InVitrogen). Immunoblots were performed in a 20 mM Tris-buffered 137 mM saline solution (pH 7.6) containing 0.1% Tween-20 (polyoxyethylene (20) sorbitan monolaurate) and 5% (weight/volume) blotting grade non-fat dry milk (BioRad). The Lumigen PS-3 enhanced chemiluminescence kit (GE Healthcare) was used to reveal immunoblotted proteins.
# Initially, an established immunoblot-based assay to detect microtubule associated protein light chain 3 (LC3) lipidation was used to test for the activation of autophagy. […] Since transient transfections can produce spurious GFP-LC3 aggregates, stable GFP-LC3 transfected populations of MDA-MB-468 (GFP-LC3) were generated. These cells were treated for 24 hours with increasing concentrations of Sigma receptor antagonists and agonists, and were compared to basal and DMSO treated controls (FIGS. 4B & 4C).
# [3] = system: MDA-MB-468 cells; test: Alamar blue assay of bortezomib potentiation; settings: 10 μM IPAG with 0.01 μM bortezomib, 20 hours
# Procedure: In vitro cell proliferation and cell death were quantified by Alamar blue reduction. To evaluate potentiation of proteasome inhibitor (bortezomib)-induced cell death by IPAG, MDA-MB-468 cells were treated for 20 hours with a 10 μM IPAG or 0.01 μM bortezomib alone or both drugs combined. Cell death was confirmed by trypan blue exclusion assay (data not shown). Data are representative of an experiment performed in triplicate.
# [4] = system: MDA-MB-468 and MDA-MB-231 breast adenocarcinoma cells; test: Poly-ubiquitylated protein immunoblot, breast adenocarcinoma cells; settings: 10 μM, up to 24 hours, MDA-MB-468
# Procedure: FIG. 34A is an image of an immunoblot of MDA-MB-468 breast adenocarcinoma cells treated with 10 μM Sigma1 antagonist (IPAG) for the indicated times, up to 24 hours. Total cell lysates were resolved by SDS-PAGE and immunoblotted with a poly-ubiquitin antibody P4D1. FIG. 34B is an image of an immunoblot of HepG2 hepatocellular carcinoma cells treated for 20 hours with 10 μM of indicated Sigma1 ligands.
# FIG. 59, comprising FIGS. 59A-59B, illustrates the finding that the novel Sigma1 ligand JMS-51-58 modulated the ubiquitin proteasome system. FIG. 59A is an image of an immunoblot evaluating the levels of poly-ubiquitylated proteins of MDA-MB-468 breast adenocarcinoma treated for 16 hours with 10 μM of JMS-51-58. FIG. 59B is an image of an immunoblot evaluating the levels of poly-ubiquitylated proteins of MDA-MB-231 breast adenocarcinoma cells treated for 16 hours with 10 μM of JMS-51-58. The levels of poly-ubiquitylated proteins were evaluated by immunoblot.
structure (smiles),measurement,setting,value
"N=C(Nc1ccc(I)cc1)NC1C2CC3CC(C2)CC1C3 (stereo not drawn) [IPAG, 1-(4-iodophenyl)-3-(2-adamantyl)guanidine]",mean FSC-H (relative cell size),[1]; 24 hours,323±4
same,mean FSC-H (relative cell size),[1]; 48 hours,267±2
same,conversion of LC3 to LC3II (autophagosome formation),[2]; 10 μM,converted LC3 to LC3II
same,EC50,"[2]; Homo sapiens, MDA-MB-468, two independent determinations, read-out: mean EC50 of LC3 lipid conjugation (LC3II induction)",7 µM
same,potentiation of bortezomib-induced cell death,[3],potentiates bortezomib-induced adenocarcinoma cell death
same,levels of ubiquitylated proteins,[4],increased level of ubiquitylated proteins
